Consider 11 compounds from ChEMBL document CHEMBL1140123, “Whole structure-activity relationships of the fat-accumulation inhibitor (-)-ternatin: recognition of the importance of each amino acid residue” (J Med Chem, 2008).

Data set [1] in a line: Toxicity in mouse 3T3L1 cells. The format is cell-based. Particulars: 3T3-L1 cells.
The test system of data set [2] is 3T3-L1. Nature of the data set: Inhibition of fat accumulation in mouse 3T3L1 cells assessed as liberated triglyceride after 7 days. The format is functional, cell-based. Particulars: 3T3-L1, 168 h.
Data set [3] relates to 3T3-L1. Briefly: Inhibition of fat accumulation in mouse 3T3L1 cells assessed as liberated triglyceride after 7 days relative to (-)-ternatin. The format is functional.

Where only a bound is given, the exact number is not on record here.

By IC50 is commonly meant the concentration that inhibits the measured activity by half. For `CCCCCC[C@H]1NC(=O)[C@@H]([C@H](O)C(C)C)NC(=O)[C@@H](C)N(C)C(=O)[C@H](C)N(C)C(=O)[C@H](CC(C)C)NC(=O)[C@H](CC(C)C)N(C)C(=O)[C@H](C)N(C)C1=O`, the values for the IC50 (in data set [1]; in the data set on 3T3-L1 [2]) were above 130 µM and 46 µM, respectively.
Take `CC[C@H](C)[C@H]1NC(=O)[C@@H]([C@H](O)C(C)C)NC(=O)[C@@H](C)N(C)C(=O)[C@H](C)N(C)C(=O)[C@H](CC(C)C)NC(=O)[C@H](C)N(C)C(=O)[C@H](C)N(C)C1=O`: the 50% inhibitory concentration (IC50) in data set [1] is above 29 µM; in the data set with 3T3-L1 [2], 1.6 µM.
The corresponding values for `CC[C@H](C)[C@H]1NC(=O)[C@@H](COCc2ccccc2)NC(=O)[C@H](C)N(C)C(=O)[C@H](C)N(C)C(=O)[C@H](CC(C)C)NC(=O)[C@H](CC(C)C)N(C)C(=O)[C@H](C)N(C)C1=O` are 89 µM and 5.9 µM.
For `CCCCCC[C@@H]1NC(=O)[C@H](CC(C)C)N(C)C(=O)[C@H](C)N(C)C(=O)[C@@H]([C@@H](C)CC)NC(=O)[C@@H]([C@H](O)C(C)C)NC(=O)[C@@H](C)N(C)C(=O)[C@H](C)N(C)C1=O`, the Activity in the data set with 3T3-L1 [3] worked out at 0.002. Besides, the IC50 (in data set [1]; with 3T3-L1 [2]) was above 130 µM each time.
As for `CC(C)C[C@@H]1NC(=O)[C@H](CC(C)C)N(C)C(=O)[C@H](C)N(C)C(=O)[C@@H](C)NC(=O)[C@@H]([C@H](O)C(C)C)NC(=O)[C@@H](C)N(C)C(=O)[C@H](C)N(C)C1=O`, the Activity in the data set on 3T3-L1 [3] is 0.002. For the same compound, the IC50 (in data set [1]; with 3T3-L1 [2]) was above 130 µM each time.
In the case of `CCCCCC[C@@H]1C(=O)N[C@H]([C@H](O)C(C)C)C(=O)N[C@H]([C@@H](C)CC)C(=O)N(C)[C@@H](C)C(=O)N(C)[C@@H](CC(C)C)C(=O)N[C@@H](CC(C)C)C(=O)N(C)[C@@H](C)C(=O)N1C`, the IC50 in data set [1] came to 0.066 µM; in the data set with 3T3-L1 [2], 0.016 µM.
Turning to `CCCCCC[C@H]1C(=O)N(C)[C@@H](CC(C)C)C(=O)N[C@@H](CC(C)C)C(=O)N(C)[C@@H](C)C(=O)N(C)[C@H](C)C(=O)N[C@H]([C@H](O)C(C)C)C(=O)N[C@H]([C@@H](C)CC)C(=O)N1C`, the IC50 is above 12 µM in data set [1] and 1.1 µM with 3T3-L1 [2].
Regarding `CC[C@H](C)[C@H]1NC(=O)[C@@H](C)NC(=O)[C@@H](C)N(C)C(=O)[C@H](C)N(C)C(=O)[C@H](CC(C)C)NC(=O)[C@H](CC(C)C)N(C)C(=O)[C@H](C)N(C)C1=O`, the 50% inhibitory concentration (IC50) in data set [1] was above 130 µM; in the data set with 3T3-L1 [2], 14 µM.
The corresponding values for `CCCCCC[C@H]1C(=O)N(C)[C@H](C)C(=O)N[C@H]([C@H](O)C(C)C)C(=O)N[C@H]([C@@H](C)CC)C(=O)N(C)[C@@H](C)C(=O)N(C)[C@@H](CC(C)C)C(=O)N[C@@H](CC(C)C)C(=O)N1C` are 0.96 µM and 0.12 µM.
In the case of `CC[C@H](C)[C@H]1NC(=O)[C@@H]([C@H](O)C(C)C)NC(=O)[C@@H](C)N(C)C(=O)[C@H](C)N(C)C(=O)[C@H](C)NC(=O)[C@H](CC(C)C)N(C)C(=O)[C@H](C)N(C)C1=O`, the Activity with 3T3-L1 [3] turned out to be 0.002. Besides, the IC50 (in data set [1]; in the data set with 3T3-L1 [2]) was above 130 µM in each case.
`CCCCCC[C@H]1C(=O)N[C@@H](CC(C)C)C(=O)N(C)[C@@H](C)C(=O)N(C)[C@H](C)C(=O)N[C@H]([C@H](O)C(C)C)C(=O)N[C@H]([C@@H](C)CC)C(=O)N(C)[C@@H](C)C(=O)N1C`: the values for the IC50 (in data set [1]; in the data set with 3T3-L1 [2]) were 2.1 µM and 0.38 µM, respectively.
